Values joined by “and” are separate entries in the source; they are usually repeats but may differ in a detail not shown here. Equal values may be shown once. Inconclusive results and toxic doses are left out.
Test system: L1210 leukemia ip in BDF1 mice, survival T/C
Experiment: NCI In Vivo Anticancer Drug Screen. Data for tumor model L1210 Leukemia (intraperitoneal) in B6D2F1 (BDF1) mice
Conditions: endpoint: mean survival time, higher = longer survival
In short: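 Tumor was transplanted into mice, which were then dosed with test compound or vehicle alone. Survival was recorded for each group, and the treated figure was expressed relative to the control figure.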

[1] = dose: 100.0 mg/kg/injection, schedule: Q04DX002 (ip), vehicle: Klucel (hydroxypropylcellulose) (HPC)
[2] = dose: 200.0 mg/kg/injection, schedule: Q04DX002 (ip), vehicle: Klucel (hydroxypropylcellulose) (HPC)
[3] = dose: 100.0 mg/kg/injection, schedule: Q04DX003 (ip), vehicle: Klucel (hydroxypropylcellulose) (HPC)
[4] = dose: 200.0 mg/kg/injection, schedule: Q04DX003 (ip), vehicle: Klucel (hydroxypropylcellulose) (HPC)
[5] = dose: 400.0 mg/kg/injection, schedule: Q04DX003 (ip), vehicle: Klucel (hydroxypropylcellulose) (HPC)
[6] = dose: 100.0 mg/kg/injection, schedule: Q01DX009 (ip), vehicle: Klucel (hydroxypropylcellulose) (HPC)
[7] = dose: 200.0 mg/kg/injection, schedule: Q01DX009 (ip), vehicle: Klucel (hydroxypropylcellulose) (HPC)
[8] = dose: 400.0 mg/kg/injection, schedule: Q01DX009 (ip), vehicle: Klucel (hydroxypropylcellulose) (HPC)

Question: For `CC(C)(Cc1ccccc1)NC(=O)N(CCCl)N=O`, which T/C (dose: 31.0 mg/kg/injection, schedule: Q01DX001 (ip), vehicle: other) is on record?
Answer: 124 % of control

Question: What about the T/C (dose: 62.0 mg/kg/injection, schedule: Q01DX001 (ip), vehicle: other) of the same compound?
Answer: 151 % of control

Question: What about the T/C (dose: 250.0 mg/kg/injection, schedule: Q01DX001 (ip), vehicle: other) of the same compound?
Answer: 194 % of control

Question: And the T/C (dose: 375.0 mg/kg/injection, schedule: Q01DX001 (ip), vehicle: other)?
Answer: 244 % of control

Question: What about the T/C (dose: 500.0 mg/kg/injection, schedule: Q01DX001 (ip), vehicle: other) of the same compound?
Answer: 273 % of control

Question: And the T/C (dose: 750.0 mg/kg/injection, schedule: Q01DX001 (ip), vehicle: other)?
Answer: 263 % of control

Question: What about the T/C (dose: 1000.0 mg/kg/injection, schedule: Q01DX001 (ip), vehicle: other) of the same compound?
Answer: 111 % of control

Question: Which results are given for `O=C1/C(=C\c2ccc(Cl)c(Cl)c2)N2CCC1CC2`?
Answer: T/C [1]: 96 % of control; T/C [2]: 104 % of control; T/C (dose: 400.0 mg/kg/injection, schedule: Q04DX002 (ip), vehicle: Klucel (hydroxypropylcellulose) (HPC)): 114 % of control

Question: How did the T/C (dose: 100.0 mg/kg/injection, schedule: Q01DX001 (sc), vehicle: steriod suspending solution) turn out when `C[C@H]1CC[C@@H]2[C@@H](C)[C@H]3[C@H](C[C@H]4[C@@H]5CC=C6C[C@@H](O)CC[C@]6(C)[C@H]5C[C@H](O)[C@]34C)N2C1` was run?
Answer: 100 % of control

Question: And the T/C (dose: 200.0 mg/kg/injection, schedule: Q01DX001 (sc), vehicle: steriod suspending solution)?
Answer: 91 % of control

Question: What about the T/C (dose: 400.0 mg/kg/injection, schedule: Q01DX001 (sc), vehicle: steriod suspending solution) of the same compound?
Answer: 91 % of control

Question: Which T/C [3] does the source give for `Cc1nc2ccc(N=Cc3ccc(N(CCCl)CCCl)cc3)cc2[nH]1` here?
Answer: 102 % of control

Question: What about the T/C [4] of the same compound?
Answer: 98 % of control

Question: What about the T/C [5] of the same compound?
Answer: 104 % of control

Question: What does the source list for `CCCCCCCCCCCCCCCCCCNC(=O)Nc1cccc2ccccc12`?
Answer: T/C (dose: 100.0 mg/kg/injection, schedule: Q01DX009 (ip), vehicle: carboxymethylcellulose (CMC)): 87 % of control; T/C [1]: 101 % of control; T/C (dose: 100.0 mg/kg/injection, schedule: Q04DX002 (ip), vehicle: carboxymethylcellulose (CMC)): 87 % of control; T/C (dose: 100.0 mg/kg/injection, schedule: Q04DX003 (ip), vehicle: carboxymethylcellulose (CMC)): 106 % of control; T/C (dose: 200.0 mg/kg/injection, schedule: Q01DX009 (ip), vehicle: carboxymethylcellulose (CMC)): 87 % of control; T/C [2]: 101 % of control; T/C (dose: 200.0 mg/kg/injection, schedule: Q04DX002 (ip), vehicle: carboxymethylcellulose (CMC)): 93 % of control and 95 % of control; T/C (dose: 200.0 mg/kg/injection, schedule: Q04DX003 (ip), vehicle: carboxymethylcellulose (CMC)): 96 % of control; T/C (dose: 400.0 mg/kg/injection, schedule: Q01DX009 (ip), vehicle: carboxymethylcellulose (CMC)): 94 % of control and 97 % of control; T/C (dose: 400.0 mg/kg/injection, schedule: Q04DX002 (ip), vehicle: carboxymethylcellulose (CMC)): 93 % of control and 88 % of control; T/C (dose: 400.0 mg/kg/injection, schedule: Q04DX003 (ip), vehicle: carboxymethylcellulose (CMC)): 90 % of control

Question: Which results are given for `CCCCCCCCCC(=O)NN1CCOCC1`?
Answer: T/C (dose: 100.0 mg/kg/injection, schedule: Q01DX009 (ip), vehicle: saline with Tween-80): 105 % of control; T/C (dose: 200.0 mg/kg/injection, schedule: Q01DX009 (ip), vehicle: saline with Tween-80): 89 % of control; T/C (dose: 400.0 mg/kg/injection, schedule: Q01DX009 (ip), vehicle: saline with Tween-80): 89 % of control

Question: For `N#Cc1ccc(/C=C/C(=O)c2ccccc2)cc1`, which T/C (dose: 100.0 mg/kg/injection, schedule: Q01DX001 (ip), vehicle: Klucel (hydroxypropylcellulose) (HPC)) is on record?
Answer: 95 % of control

Question: What about the T/C [6] of the same compound?
Answer: 96 % of control

Question: What about the T/C (dose: 200.0 mg/kg/injection, schedule: Q01DX001 (ip), vehicle: Klucel (hydroxypropylcellulose) (HPC)) of the same compound?
Answer: 88 % of control

Question: What about the T/C [7] of the same compound?
Answer: 93 % of control

Question: And the T/C [8]?
Answer: 89 % of control

Question: With `OC(COc1cccc2ccccc12)CN1CC=C(c2ccccc2)CC1` (stereo not given) as the compound, how does the T/C (dose: 12.5 mg/kg/injection, schedule: Q01DX009 (ip), vehicle: Klucel (hydroxypropylcellulose) (HPC)) read?
Answer: 103 % of control

Question: And the T/C (dose: 25.0 mg/kg/injection, schedule: Q01DX009 (ip), vehicle: Klucel (hydroxypropylcellulose) (HPC))?
Answer: 100 % of control

Question: What about the T/C (dose: 50.0 mg/kg/injection, schedule: Q01DX009 (ip), vehicle: Klucel (hydroxypropylcellulose) (HPC)) of the same compound?
Answer: 101 % of control

Question: And the T/C [6]?
Answer: 100 % of control

Question: `Cc1cccc(NC(=O)c2ccc(Cl)cc2Cl)c1C` was tested. Which T/C [6] did it give?
Answer: 102 % of control

Question: And the T/C [3]?
Answer: 101 % of control

Question: What about the T/C [7] of the same compound?
Answer: 91 % of control

Question: And the T/C [4]?
Answer: 90 % of control

Question: What about the T/C [8] of the same compound?
Answer: 91 % of control

Question: What about the T/C [5] of the same compound?
Answer: 93 % of control

— PubChem BioAssay AID248 (DTP/NCI, 2004)
